{"source": "the NIST ThermoML archive (doi:10.1021/je200215d)", "key": {"[1]": {"details": "for surface tension liquid-gas / mass density: 298.15 K; for surface tension liquid-gas: Maximal bubble pressure; for mass density: 101.33 kPa, Vibrating tube method; for mass density / vapor or sublimation pressure: Liquid; for vapor or sublimation pressure: Ebulliometric method (Recirculating still)"}, "[2]": {"test": "refractive index (Na D-line) (dimensionless)", "details": "298.15 K; 101.33 kPa; Liquid; Standard Abbe refractometry"}, "[3]": {"test": "xn = mol fraction of the nth substance listed", "details": "303.15 K, Maximal bubble pressure"}}, "note": "Numbers after ± are expanded uncertainties.", "data": [{"smiles": "CCC(C)(C)OC", "note": "[2-methoxy-2-methylbutane]", "values": [{"measurement": "surface tension liquid-gas", "setting": "[1]", "result": "22 ± 0.23", "unit": "mN/m"}, {"measurement": "mass density", "setting": "[1]", "result": "765.8 ± 0.18", "unit": "kg/m3"}, {"measurement": "vapor or sublimation pressure", "setting": "[1]; 359.52 K", "result": "101.33 ± 0.21", "unit": "kPa"}, {"measurement": "refractive index", "setting": "[2]", "result": "1.38712 ± 0.00072"}]}, {"smiles": "CCO", "note": "[ethanol]", "values": [{"measurement": "surface tension liquid-gas", "setting": "[1]", "result": "21.7 ± 0.23", "unit": "mN/m"}, {"measurement": "mass density", "setting": "[1]", "result": "785.05 ± 0.16", "unit": "kg/m3"}, {"measurement": "vapor or sublimation pressure", "setting": "[1]; 351.45 K", "result": "101.33 ± 0.21", "unit": "kPa"}, {"measurement": "refractive index", "setting": "[2]", "result": "1.36068 ± 0.00072"}]}, {"smiles": "CCO", "note": "[ethanol] + CCC(C)(C)OC", "values": [{"measurement": "surface tension liquid-gas", "setting": "[3]; x1 = 1", "result": "21.7 ± 0.26", "unit": "mN/m"}]}, {"smiles": "CCC(C)(C)OC", "note": "[2-methoxy-2-methylbutane] + CCO", "values": [{"measurement": "surface tension liquid-gas", "setting": "[3]; x2 = 0", "result": "22 ± 0.26", "unit": "mN/m"}, {"measurement": "surface tension liquid-gas", "setting": "[3]; x2 = 0.04", "result": "21.97 ± 0.26", "unit": "mN/m"}, {"measurement": "surface tension liquid-gas", "setting": "[3]; x2 = 0.071", "result": "21.95 ± 0.26", "unit": "mN/m"}, {"measurement": "surface tension liquid-gas", "setting": "[3]; x2 = 0.137", "result": "21.93 ± 0.26", "unit": "mN/m"}, {"measurement": "surface tension liquid-gas", "setting": "[3]; x2 = 0.198", "result": "21.9 ± 0.26", "unit": "mN/m"}, {"measurement": "surface tension liquid-gas", "setting": "[3]; x2 = 0.252", "result": "21.88 ± 0.26", "unit": "mN/m"}, {"measurement": "surface tension liquid-gas", "setting": "[3]; x2 = 0.303", "result": "21.86 ± 0.26", "unit": "mN/m"}, {"measurement": "surface tension liquid-gas", "setting": "[3]; x2 = 0.41", "result": "21.84 ± 0.26", "unit": "mN/m"}, {"measurement": "surface tension liquid-gas", "setting": "[3]; x2 = 0.508", "result": "21.81 ± 0.26", "unit": "mN/m"}, {"measurement": "surface tension liquid-gas", "setting": "[3]; x2 = 0.611", "result": "21.78 ± 0.26", "unit": "mN/m"}, {"measurement": "surface tension liquid-gas", "setting": "[3]; x2 = 0.708", "result": "21.76 ± 0.26", "unit": "mN/m"}, {"measurement": "surface tension liquid-gas", "setting": "[3]; x2 = 0.803", "result": "21.73 ± 0.26", "unit": "mN/m"}, {"measurement": "surface tension liquid-gas", "setting": "[3]; x2 = 0.898", "result": "21.71 ± 0.26", "unit": "mN/m"}]}]}
